Where two headings read alike, the source gives them in different places.
Experiments:
[1] = tested on: Hela cells; conditions: 24 h, ref Wang et al. (2016a), cited from earlier work
[2] = tested on: actin filaments in Hela cells; conditions: cited from earlier work
[3] = tested on: MCF-7 cells; conditions: MTT, 72 h; ref Wang et al. (2016a); cited from earlier work
[4] = tested on: U2OS cells; conditions: MTT, 48 h; ref Wang et al. (2016a); cited from earlier work
[5] = tested on: cellular actin filaments in actin-RFP Hela cells; conditions: ref Wang et al. (2016a); cited from earlier work
[6] = tested on: Hela cells; conditions: MTT, 48 h; ref Wang et al. (2016a); cited from earlier work
[7] = tested on: mitotic spindles in Hela cells; conditions: Hela metaphase cells, 24 h, IC50; ref Wang et al. (2016a); cited from earlier work
[8] = tested on: Hela, MCF-7 and U2OS cells; test: MTT assay, summary over three cell lines; format: cell-based; conditions: Homo sapiens; range over Hela, MCF-7, U2OS and over the three cucurbitacins
Method: (§1) The anti-proliferative effects of cucurbitacins were assessed using MTT assay, as previously described ([Nurcahyanti & Wink, 2015]). In brief, cells (1 × 10^4) were seeded in 96-well plates and incubated with different concentrations of cucurbitacins for 48 h (Hela, U2OS) and 72 h (MCF-7). MTT solution was then added and incubated for 2 h. The plates were read at 570 nm after the addition of DMSO using Tecan infinite M200 Pro (Tecan, Crailsheim, Germany).
(§2) All experiments were done in triplicate, repeated three times. Data are presented as mean ± standard deviation (SD). Statistical comparison between controls and different treatments were performed by an unpaired student’s t test using Microsoft excel 2013 (Microsoft Corporation, Washington, USA). Significance was considered at p < 0.05.

[9] = tested on: Hela cells; test: MTT assay (cytotoxicity), Hela; format: cell-based, human; conditions: 48 h; for IC80: 80% reduction of cell viability
Method: as §1, §2

[10] = tested on: U2OS cells; test: MTT assay (cytotoxicity), U2OS; format: cell-based, human; conditions: 48 h
Method: as §1, §2

[11] = target: T1, Porcine brain tubulin plus MAPs (Sus scrofa, UniProt P02550+P02554); test: In vitro tubulin polymerization assay; format: biochemical; conditions: for effect on tubulin assembly in vitro at 1 mM: Figure 4D
T1 construct: Porcine brain tubulin plus MAPs was prepared by two cycles of polymerization and depolymerization; from tissue; host or cells: porcine brain
Method: Porcine brain tubulin plus MAPs was prepared by two cycles of polymerization and depolymerization according to a standard protocol ([Gell et al., 2011]). In-vitro tubulin polymerization assays were carried out in PEM buffer (100 mM PIPES, 2 mM EGTA, 0.1 mM EDTA, 3 mM MgCl2, 1 mM ATP and 1 mM GTP, pH 6.85) by mixing 5.6 mg/ml tubulin-MAPs with different concentrations of cucurbitacins in 96-well plates at 37°C for 40 min. The rate and extent of the polymerization reaction were monitored by light scattering at 360 nm using Tecan infinite M200 Pro.
as §2

[12] = tested on: MCF-7 cells; test: MTT assay (cytotoxicity), MCF-7; format: cell-based, human
Method: as §1, §2

[13] = tested on: mitotic spindles in Hela cells; test: Immunofluorescence staining, mitotic spindles; format: cell-based, human; conditions: Hela metaphase cells, 24 h, IC50
Method: The immunofluorescence staining was carried out as established in our laboratory ([Wang et al., 2016a]).

[14] = tested on: microtubule network in α-tubulin-GFP U2OS cells; test: Imaging of tubulin-GFP transfected U2OS cells; format: cell-based, human; conditions: IC80 and IC50, 2-48 h
Method: Cells were imaged using a Keyence BZ-9000 microscope (Keyence; Neu-Isenburg, Germany) after incubation for 2 h, 4 h, 24 h and 48 h. The images were analyzed using BZ-II Analyzer software (version 2.1, Keyence; Neu-Isenburg, Germany).

[15] = tested on: Hela cells; test: Cell cycle analysis (propidium iodide, flow cytometry); format: cell-based, human; conditions: 24 h
Method: Cell cycle analysis was carried out as established in our laboratory ([Su, Cheng & Wink, 2015]). Briefly, Hela cells (5 × 10^5) were seeded in 6-well-plates and treated with different concentrations of cucurbitacins for 24 h. Cells were then collected, centrifuged and fixed in 70% ice-cold ethanol for at least 8 h. After washing steps, cells were treated with 0.2 mg/ml RNase A for 30 min at 37 C and then stained with 0.1 mg/ml propidium iodide. Samples were analyzed using a FACScan flow cytometer (Becton Dickinson, Heidelberg, Germany). Data were analyzed using Cell Quest™ Pro software (Becton Dickinson) and Microsoft excel (Microsoft Corporation, Washington, USA).

[16] = target: T1, Porcine brain tubulin plus MAPs
[17] = tested on: microtubule network in α-tubulin-GFP U2OS cells; conditions: cited from earlier work
[18] = 1 h and 24 h, ref Wang et al. (2016a)

T1 sequence (P02550 whole entry): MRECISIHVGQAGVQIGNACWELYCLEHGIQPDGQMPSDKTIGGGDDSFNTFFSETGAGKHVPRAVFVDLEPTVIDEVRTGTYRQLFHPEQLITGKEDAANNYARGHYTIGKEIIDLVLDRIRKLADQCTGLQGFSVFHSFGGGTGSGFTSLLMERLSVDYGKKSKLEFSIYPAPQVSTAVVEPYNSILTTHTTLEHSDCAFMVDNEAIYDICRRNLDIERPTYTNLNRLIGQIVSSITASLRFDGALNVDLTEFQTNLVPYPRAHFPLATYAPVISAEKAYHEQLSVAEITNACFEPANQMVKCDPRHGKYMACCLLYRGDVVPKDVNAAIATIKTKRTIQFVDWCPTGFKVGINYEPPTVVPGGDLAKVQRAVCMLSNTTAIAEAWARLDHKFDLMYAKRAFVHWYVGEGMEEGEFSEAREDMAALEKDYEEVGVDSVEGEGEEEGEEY
T1 sequence (P02554 whole entry): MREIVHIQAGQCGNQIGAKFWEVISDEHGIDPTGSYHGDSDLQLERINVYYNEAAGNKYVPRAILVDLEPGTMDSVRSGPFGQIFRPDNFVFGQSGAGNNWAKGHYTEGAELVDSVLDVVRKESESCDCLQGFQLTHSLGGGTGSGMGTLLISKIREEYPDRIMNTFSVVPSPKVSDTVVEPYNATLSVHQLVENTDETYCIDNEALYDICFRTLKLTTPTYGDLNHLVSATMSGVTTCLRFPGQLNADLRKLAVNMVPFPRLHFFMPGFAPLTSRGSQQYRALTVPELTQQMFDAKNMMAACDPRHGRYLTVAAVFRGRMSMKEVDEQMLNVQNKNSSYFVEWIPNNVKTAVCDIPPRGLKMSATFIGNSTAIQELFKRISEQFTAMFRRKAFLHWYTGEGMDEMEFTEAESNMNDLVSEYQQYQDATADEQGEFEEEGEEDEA

Compound	effect on cell cycle [1]	effect on actin filaments (immunofluorescence) [2, 18]	IC80 [3] [µM]	IC80 [4] [µM]	effect on cellular actin filaments (actin-RFP) [5]	IC80 [6] [µM]	effect on mitotic spindles [7]	IC50 [8] [µM]	IC50 ([9]; Homo sapiens, HeLa) [µM]	IC80 ([9]; Homo sapiens, HeLa) [µM]	IC50 ([10]; Homo sapiens, U2OS) [µM]	IC80 ([10]; Homo sapiens, U2OS) [µM]	IC50 [11] [µM]	IC50 ([12]; Homo sapiens, MCF7, 72 h) [µM]	IC80 ([12]; Homo sapiens, MCF7, 72 h) [µM]	effect on mitotic spindles [13]	effect on cellular microtubule network [14]	effect on cell cycle [15]	effect on tubulin assembly in vitro [11]	effect on tubulin assembly in vitro at 1 mM [11]	also measured
COc1cc2c(c(OC)c1OC)-c1ccc(OC)c(=O)cc1[C@@H](NC(C)=O)CC2 [Colchicine, colchicine]	dose-dependent G2/M cell cycle arrest	No apparent changes on actin filaments	0.0799 ± 0.0409	0.87 ± 1.46	No notable changes on actin filaments	0.027 ± 0.00748	completely depolymerized spindle with the compacted chromosomes														G2/M population ([1]; 0.1μM): 89.66 ± 2.04%
CC(=O)OC(C)(C)/C=C/C(=O)[C@](C)(O)[C@H]1[C@H](O)C[C@@]2(C)[C@@H]3CC=C4[C@@H](C=C(O)C(=O)C4(C)C)[C@]3(C)C(=O)C[C@]12C [Cucurbitacin E, cucurbitacin E]								0.00643 to 0.0647	0.00643 ± 0.00105	0.0151 ± 0.00267	0.0151 ± 0.00451	0.0263 ± 0.0185	567 ± 113	0.054 ± 0.00316	0.92 ± 0.2	disordered distribution of spindle array	changed the morphology of microtubule network into half-stretching state after 2 h incubation then round state after 24 h incubation	potential ability to arrest cell cycle at G2/M phase			effect on phases of microtubule assembly (nucleation, growth, steady state) [11]: did not affect the nucleation but inhibited the growth phase and steady state; G2/M population ([15]; 0.3μM): 59.35 ± 5.69%
CC(C)(O)/C=C/C(=O)[C@](C)(O)[C@H]1[C@H](O)C[C@@]2(C)[C@@H]3CC=C4[C@@H](C=C(O)C(=O)C4(C)C)[C@]3(C)C(=O)C[C@]12C [Cucurbitacin I, cucurbitacin I]								0.00643 to 0.0647	0.0448 ± 0.00154	0.0555 ± 0.00363	0.0235 ± 0.0169	0.034 ± 0.0177	> 1000	0.0647 ± 0.0143	0.29 ± 0.08	multipolar spindles and chromosomes mis-segregation on the metaphase plate		potential ability to arrest cell cycle at G2/M phase	did not affect the tubulin assembly in vitro	did not affect the assembly	G2/M population ([15]; 0.6μM): 59.18 ± 7.2%
C/C1=C/C(=O)O[C@@H]2C[C@@H](CC[C@H](C)/C=C\CC1)O[C@@](O)([C@@H]1CSC(=O)N1)C2 [Latrunculin B, latrunculin B]	dose-dependent G2/M cell cycle arrest	actin cytoskeleton extensively disrupted	140 ± 6.58	37.2 ± 15.7	actin cytoskeleton significantly disrupted	63.9 ± 5.68	did not alter mitotic spindles and chromosome arrangements														IC50 ([16]; read-out: IC50, inhibition of tubulin polymerization in vitro; 5.6 mg/ml tubulin-MAPs, 37°C, 40 min; ref Wang et al. (2016a); cited from earlier work): > 1000 µM; IC50 [3]: 38.5 ± 1.7 µM; IC50 [4]: 5.67 ± 0.59 µM; effect on cellular microtubule network ([17]; both concentrations (IC80, IC50), ref Wang et al. (2016a)): changed the cell morphology from stretching state into round state; IC50 [6]: 11.2 ± 1.27 µM
CC[C@]1(O)C[C@@H]2CN(CCc3c([nH]c4ccccc34)[C@@](C(=O)OC)(c3cc4c(cc3OC)N(C)[C@H]3[C@@](O)(C(=O)OC)[C@H](OC(C)=O)[C@]5(CC)C=CCN6CC[C@]43[C@@H]65)C2)C1 [Vinblastine, vinblastine]	dose-dependent G2/M cell cycle arrest		2.08 ± 0.92	1.15 ± 0.51	No notable changes on actin filaments	0.7 ± 0.34	depolymerized bipolar spindles														IC50 ([16]; 5.6 mg/ml tubulin-MAPs, 37°C, 40 min; ref Wang et al. (2016a); read-out: IC50, inhibition of tubulin polymerization in vitro; cited from earlier work): 1.57 ± 0.34 µM; effect on phases of microtubule assembly (nucleation, growth, steady state) ([16]; ref Wang et al. (2016a); cited from earlier work): inhibited the nucleation and growth phase during the assembly; G2/M population ([1]; 10 nM): 78.04 ± 14.78%; effect on actin filaments (immunofluorescence) ([2]; 24 h, concentration of IC80, ref Wang et al. (2016a)): slight reduction of actin filament mass; IC50 [3]: 6e-05 ± 5e-05 µM; IC50 [4]: 0.00011 ± 7e-05 µM; effect on cellular microtubule network ([17]; concentration of IC50, ref Wang et al. (2016a)): extensively depolymerized microtubules; effect on cellular microtubule network ([17]; concentration of IC80, ref Wang et al. (2016a)): tubulin paracrystals were formed and dispersed through out the cytoplasm; IC50 [6]: 2e-05 ± 1e-05 µM
cucurbitacin B																disordered distribution of spindle array	changed the morphology of microtubule network into half-stretching state after 2 h incubation then round state after 24 h incubation	potential ability to arrest cell cycle at G2/M phase	did not affect the tubulin assembly in vitro	did not affect the assembly	IC50 [9]: 0.0122 ± 0.00142 µM; IC80 [9]: 0.022 ± 0.00139 µM; effect on tubulin polymerization in vitro ([16]; same assay; ref Duangmano et al. (2012); cited from earlier work): did not affect tubulin polymerization in vitro; IC50 [10]: 0.0171 ± 0.00455 µM; IC80 [10]: 0.0281 ± 0.0152 µM; IC50 ([12]; 72 h): 0.0229 ± 0.00451 µM; IC80 ([12]; 72 h): 0.0437 ± 0.0106 µM
